Source: ChEMBL document CHEMBL1201862, “PubChem BioAssay data set” (2004)
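In this assay, cells in 96-well plates receive the compound at five concentrations for 48 hours. Endpoints are linearly interpolated between the surrounding concentrations. Abbreviation: GI50, concentration required for 50% inhibition of growth.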 The source made the active and inactive calls. Cut-off read from the data, not from the text of the source: active = GI50 up to about 1.1 µM and inactive = higher.

Key:
Assay in all cases: growth of human tumour cells (NCI), 48 h
786-0 = system: 786-0
A549 = system: A549
CAKI-1 = system: CAKI-1
CCRF-CEM = system: CCRF-CEM
COLO 205 = system: COLO 205
DU-145 = system: DU-145
EKVX = system: EKVX
HCC 2998 = system: HCC 2998
HCT-15 = system: HCT-15
HL-60 = system: HL-60
HOP-62 = system: HOP-62
HOP-92 = system: HOP-92
HT-29 = system: HT-29
IGROV-1 = system: IGROV-1
K562 = system: K562
KM12 = system: KM12
LOX IMVI = system: LOX IMVI
M14 = system: M14
MCF7 = system: MCF7
MDA-MB-231 = system: MDA-MB-231
MDA-MB-435 = system: MDA-MB-435
MDA-N = system: MDA-N
MOLT-4 = system: MOLT-4
Malme-3M = system: Malme-3M
NCI-H23 = system: NCI-H23
OVCAR-4 = system: OVCAR-4
OVCAR-8 = system: OVCAR-8
PC-3 = system: PC-3
RPMI-8226 = system: RPMI-8226
RXF 393 = system: RXF 393
SF-268 = system: SF-268
SF-295 = system: SF-295
SK-MEL-28 = system: SK-MEL-28
SK-MEL-5 = system: SK-MEL-5
SK-OV-3 = system: SK-OV-3
SN12C = system: SN12C
SNB-75 = system: SNB-75
SR = system: SR
SW-620 = system: SW-620
T47D = system: T47D
TK-10 = system: TK-10
UACC-257 = system: UACC-257
UACC-62 = system: UACC-62
A498 = system: A498
ACHN = system: ACHN
BT-549 = system: BT-549
HCT-116 = system: HCT-116
Hs-578T = system: Hs-578T
NCI-H226 = system: NCI-H226
NCI-H460 = system: NCI-H460
NCI/ADR-RES = system: NCI/ADR-RES
OVCAR-3 = system: OVCAR-3
OVCAR-5 = system: OVCAR-5
SF-539 = system: SF-539
SK-MEL-2 = system: SK-MEL-2
SNB-19 = system: SNB-19
U-251 = system: U-251
UO-31 = system: UO-31

In the case of `CCSc1[nH]c(NC(=S)NC(=O)c2ccccc2Cl)c(C(N)=O)c1C(N)=O`, the GI50 (786-0) is reported as > 10 µM (inactive), the GI50 (A549) is reported as > 10 µM (inactive) and the GI50 (CAKI-1) is reported as > 10 µM (inactive). The GI50 (CCRF-CEM) was > 10 µM (inactive), the GI50 (COLO 205) was > 10 µM (inactive) and the GI50 (DU-145) was > 10 µM (inactive). For the same compound, the GI50 (EKVX) was > 10 µM (inactive), the GI50 (HCC 2998) was > 10 µM (inactive) and the GI50 (HCT-15) was greater than 10 µM. For the same compound, the GI50 (HL-60) was > 10 µM (inactive), the GI50 (HOP-62) was > 10 µM (inactive) and the GI50 (HOP-92) was > 10 µM (inactive). The GI50 (HT-29) was > 10 µM (inactive), the GI50 (IGROV-1) was > 10 µM (inactive) and the GI50 (K562) was > 10 µM (inactive). The GI50 (KM12) was > 10 µM (inactive), the GI50 (LOX IMVI) was > 10 µM (inactive) and the GI50 (M14) was > 10 µM (inactive). The GI50 (MCF7) was > 10 µM (inactive), the GI50 (MDA-MB-231) was > 10 µM (inactive) and the GI50 (MDA-MB-435) was > 10 µM (inactive). For the same compound, the GI50 (MDA-N) was > 10 µM (inactive), the GI50 (MOLT-4) was > 10 µM (inactive) and the GI50 (Malme-3M) was > 10 µM (inactive). For the same compound, the GI50 (NCI-H23) was > 10 µM (inactive), the GI50 (OVCAR-4) was > 10 µM (inactive) and the GI50 (OVCAR-8) was > 10 µM (inactive). For the same compound, the GI50 (PC-3) was > 10 µM (inactive), the GI50 (RPMI-8226) was > 10 µM (inactive) and the GI50 (RXF 393) was 4.2 µM (inactive). For the same compound, the GI50 (SF-268) was > 10 µM (inactive), the GI50 (SF-295) was > 10 µM (inactive) and the GI50 (SK-MEL-28) was > 10 µM (inactive). For the same compound, the GI50 (SK-MEL-5) was > 10 µM (inactive), the GI50 (SK-OV-3) was > 10 µM (inactive) and the GI50 (SN12C) was > 10 µM (inactive). For the same compound, the GI50 (SNB-75) was > 10 µM (inactive), the GI50 (SR) was > 10 µM (inactive) and the GI50 (SW-620) was > 10 µM (inactive). For the same compound, the GI50 (T47D) was > 10 µM (inactive), the GI50 (TK-10) was > 10 µM (inactive) and the GI50 (UACC-257) was > 10 µM (inactive). For the same compound, the GI50 (UACC-62) was > 10 µM (inactive).

`CC(C)CC(N)C(=O)NC(CNC(CCC(N)=O)C(=O)NC(CC(C)C)C(=O)NC(CC(C)C)C(=O)O)Cc1ccc2ccccc2c1` (stereo unspecified) was tested, and the GI50 (786-0) was > 10 µM (inactive), the GI50 (A498) was > 10 µM (inactive) and the GI50 (A549) was > 10 µM (inactive). For the same compound, the GI50 (ACHN) was > 10 µM (inactive), the GI50 (BT-549) was > 10 µM (inactive) and the GI50 (CAKI-1) was 9.31 µM (inactive). The GI50 (CCRF-CEM) was > 10 µM (inactive), the GI50 (COLO 205) was > 10 µM (inactive) and the GI50 (DU-145) was > 10 µM (inactive). For the same compound, the GI50 (EKVX) was > 10 µM (inactive), the GI50 (HCC 2998) was > 10 µM (inactive) and the GI50 (HCT-116) was > 10 µM (inactive). For the same compound, the GI50 (HCT-15) was greater than 10 µM, the GI50 (HL-60) was > 10 µM (inactive) and the GI50 (HOP-62) was > 10 µM (inactive). For the same compound, the GI50 (HOP-92) was > 10 µM (inactive), the GI50 (HT-29) was > 10 µM (inactive) and the GI50 (Hs-578T) was > 10 µM (inactive). For the same compound, the GI50 (IGROV-1) was > 10 µM (inactive), the GI50 (K562) was > 10 µM (inactive) and the GI50 (KM12) was > 10 µM (inactive). The GI50 (LOX IMVI) was > 10 µM (inactive), the GI50 (M14) was > 10 µM (inactive) and the GI50 (MCF7) was > 10 µM (inactive). The GI50 (MDA-MB-231) was > 10 µM (inactive), the GI50 (MDA-MB-435) was > 10 µM (inactive) and the GI50 (MDA-N) was > 10 µM (inactive). For the same compound, the GI50 (MOLT-4) was > 10 µM (inactive), the GI50 (Malme-3M) was > 10 µM (inactive) and the GI50 (NCI-H226) was > 10 µM (inactive). The GI50 (NCI-H23) was > 10 µM (inactive), the GI50 (NCI-H460) was > 10 µM (inactive) and the GI50 (NCI/ADR-RES) was > 10 µM (inactive). The GI50 (OVCAR-3) was > 10 µM (inactive), the GI50 (OVCAR-4) was > 10 µM (inactive) and the GI50 (OVCAR-5) was > 10 µM (inactive). The GI50 (OVCAR-8) was > 10 µM (inactive), the GI50 (PC-3) was > 10 µM (inactive) and the GI50 (RPMI-8226) was > 10 µM (inactive). The GI50 (RXF 393) was > 10 µM (inactive), the GI50 (SF-268) was > 10 µM (inactive) and the GI50 (SF-295) was > 10 µM (inactive). For the same compound, the GI50 (SF-539) was > 10 µM (inactive), the GI50 (SK-MEL-28) was > 10 µM (inactive) and the GI50 (SK-MEL-2) was > 10 µM (inactive). The GI50 (SK-MEL-5) was > 10 µM (inactive), the GI50 (SK-OV-3) was > 10 µM (inactive) and the GI50 (SN12C) was > 10 µM (inactive). For the same compound, the GI50 (SNB-19) was > 10 µM (inactive), the GI50 (SNB-75) was > 10 µM (inactive) and the GI50 (SR) was > 10 µM (inactive). For the same compound, the GI50 (SW-620) was > 10 µM (inactive), the GI50 (TK-10) was > 10 µM (inactive) and the GI50 (U-251) was > 10 µM (inactive). The GI50 (UACC-257) was > 10 µM (inactive), the GI50 (UACC-62) was > 10 µM (inactive) and the GI50 (UO-31) was > 10 µM (inactive).

In the case of `COC(=O)/C=C(\C)C(=O)N(C)c1ccccc1I`, the GI50 (786-0) is reported as > 100 µM (inactive), the GI50 (A498) is reported as > 100 µM (inactive) and the GI50 (A549) is reported as > 100 µM (inactive). For the same compound, the GI50 (ACHN) was > 100 µM (inactive), the GI50 (CAKI-1) was 72.1 µM (inactive) and the GI50 (CCRF-CEM) was > 100 µM (inactive). For the same compound, the GI50 (COLO 205) was > 100 µM (inactive), the GI50 (DU-145) was > 100 µM (inactive) and the GI50 (EKVX) was > 100 µM (inactive). For the same compound, the GI50 (HCC 2998) was > 100 µM (inactive), the GI50 (HCT-116) was > 100 µM (inactive) and the GI50 (HCT-15) was greater than 100 µM. For the same compound, the GI50 (HOP-62) was > 100 µM (inactive), the GI50 (HOP-92) was > 100 µM (inactive) and the GI50 (K562) was > 100 µM (inactive). For the same compound, the GI50 (KM12) was > 100 µM (inactive), the GI50 (LOX IMVI) was > 100 µM (inactive) and the GI50 (M14) was > 100 µM (inactive). The GI50 (MCF7) was > 100 µM (inactive), the GI50 (MDA-MB-231) was > 100 µM (inactive) and the GI50 (MDA-MB-435) was > 100 µM (inactive). The GI50 (MDA-N) was > 100 µM (inactive), the GI50 (MOLT-4) was > 100 µM (inactive) and the GI50 (Malme-3M) was > 100 µM (inactive). For the same compound, the GI50 (NCI-H226) was > 100 µM (inactive), the GI50 (NCI-H23) was > 100 µM (inactive) and the GI50 (NCI-H460) was > 100 µM (inactive). The GI50 (NCI/ADR-RES) was > 100 µM (inactive), the GI50 (OVCAR-3) was > 100 µM (inactive) and the GI50 (OVCAR-4) was > 100 µM (inactive). The GI50 (OVCAR-5) was > 100 µM (inactive), the GI50 (OVCAR-8) was > 100 µM (inactive) and the GI50 (PC-3) was > 100 µM (inactive). For the same compound, the GI50 (RPMI-8226) was > 100 µM (inactive), the GI50 (RXF 393) was > 100 µM (inactive) and the GI50 (SF-268) was > 100 µM (inactive). The GI50 (SF-295) was > 100 µM (inactive), the GI50 (SK-MEL-28) was > 100 µM (inactive) and the GI50 (SK-MEL-2) was > 100 µM (inactive). For the same compound, the GI50 (SK-MEL-5) was > 100 µM (inactive), the GI50 (SK-OV-3) was > 100 µM (inactive) and the GI50 (SN12C) was > 100 µM (inactive). The GI50 (SNB-19) was > 100 µM (inactive), the GI50 (SNB-75) was 76.9 µM (inactive) and the GI50 (SR) was 94 µM (inactive). For the same compound, the GI50 (SW-620) was > 100 µM (inactive), the GI50 (T47D) was > 100 µM (inactive) and the GI50 (U-251) was > 100 µM (inactive). For the same compound, the GI50 (UACC-257) was > 100 µM (inactive), the GI50 (UACC-62) was > 100 µM (inactive) and the GI50 (UO-31) was > 100 µM (inactive).
